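These data come from cells grown in 96-well plates and exposed to compound for 48 hours at five concentrations. The concentration for 50% growth inhibition is given as GI50.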 Activity calls are given as the source filed them. Rule as the data show it: active = GI50 up to about 1.1 µM and inactive = higher.
How the values were obtained:
Test in all cases: growth of human tumour cells (NCI), 48 h
M14 = system: M14
Malme-3M = system: Malme-3M
OVCAR-4 = system: OVCAR-4
SK-MEL-5 = system: SK-MEL-5
A549 = system: A549
NCI-H226 = system: NCI-H226
U-251 = system: U-251
SN12C = system: SN12C
ACHN = system: ACHN
SF-539 = system: SF-539
HL-60 = system: HL-60
CAKI-1 = system: CAKI-1
HOP-62 = system: HOP-62
A498 = system: A498
UO-31 = system: UO-31
NCI-H23 = system: NCI-H23
EKVX = system: EKVX
CCRF-CEM = system: CCRF-CEM
TK-10 = system: TK-10

SMILES	GI50 (M14)	GI50 (Malme-3M)	GI50 (OVCAR-4)	GI50 (SK-MEL-5)	GI50 (A549)	GI50 (NCI-H226)	GI50 (U-251)	GI50 (SN12C)	GI50 (ACHN)	GI50 (SF-539)	GI50 (HL-60)	GI50 (CAKI-1)	GI50 (HOP-62)	GI50 (A498)	GI50 (UO-31)	GI50 (NCI-H23)	GI50 (EKVX)	GI50 (CCRF-CEM)	GI50 (TK-10)
CCN(CC)CCNc1ccc2nc(C)n3c4ccc(O)cc4c(=O)c1c23	2.99 µM (inactive)	3.56 µM (inactive)	0.525 µM (active)	2.01 µM (inactive)	0.179 µM (active)	0.16 µM (active)	0.745 µM (active)	0.618 µM (active)	0.231 µM (active)	1.79 µM (inactive)	0.286 µM (active)	1.24 µM (inactive)	0.975 µM (active)	2.69 µM (inactive)	1.94 µM (inactive)	–	–	–	–
COc1ccc2oc3cccc(NCCN(C)C)c3c(=O)c2c1	15.8 µM (inactive)	15.6 µM (inactive)	12.7 µM (inactive)	16.7 µM (inactive)	14.2 µM (inactive)	16.2 µM (inactive)	12.7 µM (inactive)	11 µM (inactive)	10.5 µM (inactive)	14.3 µM (inactive)	9.68 µM (inactive)	4.69 µM (inactive)	15.2 µM (inactive)	19.1 µM (inactive)	8.3 µM (inactive)	17.7 µM (inactive)	15 µM (inactive)	11.9 µM (inactive)	14.8 µM (inactive)
CC(C)c1cccc(C(C)C)c1NC(=O)/C(Cc1nc2ccc(Cl)cc2nc1O)=N\NC(=O)C[N+](C)(C)C	> 100 µM (inactive)	> 100 µM (inactive)	> 100 µM (inactive)	> 100 µM (inactive)	> 100 µM (inactive)	–	–	> 100 µM (inactive)	> 100 µM (inactive)	> 100 µM (inactive)	> 100 µM (inactive)	95.7 µM (inactive)	> 100 µM (inactive)	> 100 µM (inactive)	76.7 µM (inactive)	> 100 µM (inactive)	4.22 µM (inactive)	> 100 µM (inactive)	> 100 µM (inactive)
C[C@]12CCC[C@H](O)[C@H]1C[C@H](CO)CC2	> 100 µM (inactive)	> 100 µM (inactive)	> 100 µM (inactive)	–	> 100 µM (inactive)	> 100 µM (inactive)	> 100 µM (inactive)	> 100 µM (inactive)	> 100 µM (inactive)	> 100 µM (inactive)	> 100 µM (inactive)	> 100 µM (inactive)	> 100 µM (inactive)	> 100 µM (inactive)	> 100 µM (inactive)	> 100 µM (inactive)	–	> 100 µM (inactive)	> 100 µM (inactive)
CN(C)c1nc2oc(-c3ccccc3)c(-c3ccccc3)c2c2nnnn12	> 100 µM (inactive)	–	> 100 µM (inactive)	> 100 µM (inactive)	> 100 µM (inactive)	> 100 µM (inactive)	> 100 µM (inactive)	> 100 µM (inactive)	> 100 µM (inactive)	> 100 µM (inactive)	19.8 µM (inactive)	> 100 µM (inactive)	–	> 100 µM (inactive)	> 100 µM (inactive)	> 100 µM (inactive)	> 100 µM (inactive)	> 100 µM (inactive)	> 100 µM (inactive)
O=c1[nH]ccc(CNC23CC4CC(CC(C4)C2)C3)c1O	> 100 µM (inactive)	> 100 µM (inactive)	> 100 µM (inactive)	> 100 µM (inactive)	> 100 µM (inactive)	> 100 µM (inactive)	> 100 µM (inactive)	45.8 µM (inactive)	93.5 µM (inactive)	> 100 µM (inactive)	41.3 µM (inactive)	59.7 µM (inactive)	> 100 µM (inactive)	> 100 µM (inactive)	88.3 µM (inactive)	> 100 µM (inactive)	80.4 µM (inactive)	41.5 µM (inactive)	> 100 µM (inactive)
CCN(CC)c1c(C(=O)/C=C/c2ccccc2)c(-c2ccccc2)nn(C)c1=O	–	2.8 µM (inactive)	4.78 µM (inactive)	5.02 µM (inactive)	5.37 µM (inactive)	93.1 µM (inactive)	–	4.68 µM (inactive)	8.51 µM (inactive)	21.3 µM (inactive)	4.22 µM (inactive)	> 100 µM (inactive)	> 100 µM (inactive)	5.43 µM (inactive)	> 100 µM (inactive)	–	8.3 µM (inactive)	2.2 µM (inactive)	> 100 µM (inactive)
C[C@]12Cc3cn[nH]c3C(=O)C1CC[C@@H]1C2CC[C@@]2(C)C1CC[C@@H]2O (some centres undefined)	> 100 µM (inactive)	> 100 µM (inactive)	> 100 µM (inactive)	> 100 µM (inactive)	> 100 µM (inactive)	> 100 µM (inactive)	> 100 µM (inactive)	> 100 µM (inactive)	> 100 µM (inactive)	> 100 µM (inactive)	> 100 µM (inactive)	> 100 µM (inactive)	> 100 µM (inactive)	> 100 µM (inactive)	> 100 µM (inactive)	> 100 µM (inactive)	> 100 µM (inactive)	> 100 µM (inactive)	> 100 µM (inactive)

Reference: ChEMBL document CHEMBL1201862, “PubChem BioAssay data set” (2004)
